{"source": "patent US20220095612A1", "about": "“MICRONUTRIENT COMPOSITIONS AND SYSTEMS AND METHODS OF USING SAME” (Nanochem Solutions, Inc., priority 2020, published 2022)", "origin": "cited, not measured here"}
{"smiles": "N[C@@H](CC(=O)O)C(=O)O", "note": "[L-aspartic acid]", "values": [{"measurement": "pH at which the alpha carboxyl deprotonates", "setting": "alpha carboxyl group", "result": "about 2.09"}, {"measurement": "pH at which the carboxyl side group deprotonates", "setting": "carboxyl side group", "result": "about 3.86"}]}
